In patent US20120058997A1, “IMIDAZO[1,2-B]PYRIDAZINE AND PYRAZOLO[1,5-A]PYRIMIDINE DERIVATIVES AND THEIR USE AS PROTEIN KINASE INHIBITORS” (SuperGen, Inc., priority 2006, published 2012):

These molecules were tested against Pim-1 kinase (Homo sapiens, UniProt P11309) (assay: Promega Kinase-Glo Pim-1 kinase inhibition assay). Details: Table VIII (results); values in nM; read-out: IC50(Kinase).
Type: biochemical
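Further: in vitro Pim-1 reaction run 2 h at 30 °C, then leftover ATP measured by luciferase luminescence, where signal falls as kinase activity rises.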

Chain of Pim-1 kinase (P11309 whole entry): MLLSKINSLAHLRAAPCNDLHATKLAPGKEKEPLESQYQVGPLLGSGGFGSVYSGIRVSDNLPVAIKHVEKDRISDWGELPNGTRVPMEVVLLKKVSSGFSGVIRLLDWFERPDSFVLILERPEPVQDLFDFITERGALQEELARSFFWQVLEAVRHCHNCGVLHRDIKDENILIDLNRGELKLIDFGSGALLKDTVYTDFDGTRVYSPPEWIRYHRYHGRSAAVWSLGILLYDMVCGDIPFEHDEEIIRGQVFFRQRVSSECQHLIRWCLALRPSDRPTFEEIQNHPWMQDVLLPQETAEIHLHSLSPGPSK

SMILES | IC50 [nM]
CC(C)N1CCC(CNc2ccc3ncc(-c4cc(OC(F)(F)F)ccc4O)n3n2)CC1 [Compound 7-49, N-((1-isopropylpiperidin-4-yl)methyl)-3-(2-hydroxy-5-(trifluoromethoxy)phenyl)-imidazo[1,2-b]pyridazin-6-amine] | 310

Same assay, conditions: Table X; Kinase-Glo; read-out: IC50 on Pim1

SMILES | IC50 [nM]
C[C@]1(O)CC[C@H](Nc2ccn3ncc(-c4cccc(OC(F)(F)F)c4)c3n2)CC1 [Compound 8-48, 1-Methyl-4-((3-(3-(trifluoromethoxy)phenyl)pyrazolo[1,5-a]pyrimidin-5-yl)amino)-trans-cyclohexanol] | 100 to 1000
CO[C@H]1CC[C@H](Nc2ccn3ncc(-c4cccc(Cl)c4)c3n2)CC1 [Compound 8-64] | 10 to 100
C[C@]1(O)CC[C@H](Nc2ccn3ncc(-c4cccc(Cl)c4)c3n2)CC1 [Compound 8-62] | 100 to 1000
N[C@H]1CCCN(c2ccc3ncc(-c4cccc(OC(F)(F)F)c4)n3n2)C1 [Compound 8-25, (S)-1-(3-(3-(Trifluoromethoxy)phenyl)imidazo[1,2-b]pyridazin-6-yl)piperidin-3-amine] | 10 to 100
O=S1(=O)CCC(CNc2ccc3ncc(-c4cccc(Cl)c4)n3n2)CC1 [Compound 8-40, 4-(((3-(3-Chlorophenyl)imidazo[1,2-b]pyridazin-6-yl)amino)methyl)tetrahydro-2H-thiopyran 1,1-dioxide] | 100 to 1000
FC(F)(F)Oc1cccc(-c2cnc3ccc(NCCN4CCOCC4)nn23)c1 [Compound 8-44, N-(2-morpholinoethyl)-3-(3-(trifluoromethoxy)phenyl)imidazo[1,2-b]pyridazin-6-amine] | 10 to 100
O=S1(=O)CCN(c2ccn3ncc(-c4cccc(C(F)(F)F)c4)c3n2)CC1 [Compound 8-60] | 1000 to 5000
CN1CCC(CNc2ccn3ncc(-c4cccc(OC(F)(F)F)c4)c3n2)CC1 [Compound 8-67] | 10 to 100
O[C@@H]1CC[C@@H](Nc2ccc3ncc(-c4cccc(OC(F)(F)F)c4)n3n2)C1 [Compound 8-5, (1R,3R)3-((3-(3-(Trifluoromethoxy)phenyl)imidazo[1,2-b]pyridazin-6-yl)amino)cyclopentanol] | 10 to 100
Clc1cccc(-c2cnc3ccc(NC4CCOCC4)nn23)c1 [Compound 8-39] | < 10
O=C(CN1CCOCC1)N1CCC(CNc2ccc3ncc(-c4cccc(OC(F)(F)F)c4)n3n2)CC1 [Compound 8-21, 2-Morpholino-1-(4-(((3-(3-(trifluoromethoxy)phenyl)imidazo[1,2-b]pyridazin-6-yl)amino)methyl)piperidin-1-yl)ethanone] | 10 to 100
CN(C)CC(=O)N1CCC(CNc2ccc3ncc(-c4cccc(OC(F)(F)F)c4)n3n2)CC1 [Compound 8-45, 2-(dimethylamino)-1-(4-(((3-(3-(trifluoromethoxy)phenyl)imidazo[1,2-b]pyridazin-6-yl)amino)methyl)piperidin-1-yl)ethanone] | 10 to 100
CC(C)(O)CCNc1ccc2ncc(-c3cccc(OC(F)(F)F)c3)n2n1 [Compound 8-3, 2-Methyl-4-((3-(3-(trifluoromethoxy)phenyl)imidazo[1,2-b]pyridazin-6-yl)amino)butan-2-ol] | 10 to 100
CC(C)(O)[C@H]1CC[C@H](Nc2ccn3ncc(-c4cccc(OC(F)(F)F)c4)c3n2)CC1 [Compound 8-47] | 100 to 1000
CC(C)(O)CCOc1ccc2ncc(-c3cccc(OC(F)(F)F)c3)n2n1 [Compound 8-41, 2-Methyl-4-((3-(3-(Trifluoromethoxy)phenyl)imidazo[1,2-b]pyridazin-6-yl)oxy)butan-2-ol] | 100 to 1000
O=C1CC(CNc2ccc3ncc(-c4cccc(OC(F)(F)F)c4)n3n2)CCN1 (stereo not drawn) [Compound 8-23, 4-(((3-(3-(Trifluoromethoxy)phenyl)imidazo[1,2-b]pyridazin-6-yl)amino)methyl)piperidin-2-one] | 1000 to 5000

SMILES | IC50 [nM]
O=S1(=O)CCN(c2ccc3ncc(-c4cccc(OC(F)(F)F)c4)n3n2)CC1 [Compound 8-15, 4-(3-(3-(Trifluoromethoxy)phenyl)imidazo[1,2-b]pyridazin-6-yl)thiomorpholine 1,1-dioxide] | 1000 to 5000
OCCN1CCC(CNc2ccc3ncc(-c4cccc(OC(F)(F)F)c4)n3n2)CC1 [Compound 8-27, 2-(4-(((3-(3-(Trifluoromethoxy)phenyl)imidazo[1,2-b]pyridazin-6-yl)amino)methyl)piperidin-1-yl)ethanol] | 10 to 100
N[C@H]1CC[C@H](Nc2ccn3ncc(-c4cccc(OC(F)(F)F)c4)c3n2)CC1 [Compound 8-52, N-(3-(3-(Trifluoromethoxy)phenyl)pyrazolo[1,5-a]pyrimidin-5-yl)cyclohexane-1,4-trans-diamine] | < 10
C[C@]1(O)CC[C@H](Nc2ccn3ncc(-c4cccc(C(F)(F)F)c4)c3n2)CC1 [Compound 8-55, 1-Methyl-4-((3-(3-(trifluoromethyl)phenyl)pyrazolo[1,5-a]pyrimidin-5-yl)amino)-trans-cyclohexanol] | 10 to 100
CC(C)(O)[C@H]1CC[C@H](Nc2ccc3ncc(-c4cccc(C(F)(F)F)c4)n3n2)CC1 [Compound 8-31] | < 10
CC(C)(O)[C@H]1CC[C@H](Nc2ccn3ncc(-c4cccc(Cl)c4)c3n2)CC1 [Compound 8-63] | 10 to 100
O=S1(=O)CCC(CNc2ccc3ncc(-c4cccc(OC(F)(F)F)c4)n3n2)CC1 [Compound 8-13, 4-(((3-(3-(Trifluoromethoxy)phenyl)imidazo[1,2-b]pyridazin-6-yl)amino)methyl)tetrahydro-2H-thiopyran 1,1-dioxide] | 100 to 1000
N[C@H]1CC[C@H](Nc2ccc3ncc(-c4cccc(OC(F)(F)F)c4)n3n2)CC1 [Compound 8-8, (3-(3-(Trifluoromethoxy)phenyl)imidazo[1,2-b]pyridazin-6-yl)cyclohexane-trans-1,4-diamine] | < 10
O=S1(=O)CCC(CNc2ccc3ncc(-c4cccc(C(F)(F)F)c4)n3n2)CC1 [Compound 8-34, 4-(((3-(3-(Trifluoromethyl)phenyl)imidazo[1,2-b]pyridazin-6-yl)amino)methyl)tetrahydro-2H-thiopyran 1,1-dioxide] | 100 to 1000
CC(C)(O)[C@H]1CC[C@H](Nc2ccc3ncc(-c4cccc(Cl)c4)n3n2)CC1 [Compound 8-37] | < 10
Clc1cccc(-c2cnn3ccc(NC4CCOCC4)nc23)c1 [Compound 8-65] | 100 to 1000
CC(C)(O)CNc1ccc2ncc(-c3cccc(OC(F)(F)F)c3)n2n1 [Compound 8-6, 2-Methyl-1-((3-(3-(trifluoromethoxy)phenyl)imidazo[1,2-b]pyridazin-6-yl)amino)propan-2-ol] | 10 to 100
FC(F)(F)Oc1cccc(-c2cnc3ccc(NCC4CCOCC4)nn23)c1 [Compound 8-19, N-((tetrahydro-2H-pyran-4-yl)methyl)-3-(3-(trifluoromethoxy)phenyl)imidazo[1,2-b]pyridazin-6-amine] | 10 to 100
COc1ccc(CNc2ccc3ncc(-c4cccc(OC(F)(F)F)c4)n3n2)cc1 [Compound 8-43, N-(4-Methoxybenzyl)-3-(3-(trifluoromethoxy)phenyl)imidazo[1,2-b]pyridazin-6-amine] | 100 to 1000
FC(F)(F)Oc1cccc(-c2cnn3ccc(NC4CCOCC4)nc23)c1 [Compound 8-50, N-(Tetrahydro-2H-pyran-4-yl)-3-(3-(trifluoromethoxy)phenyl)pyrazolo[1,5-a]pyrimidin-5-amine] | 100 to 1000
O=S1(=O)CCC(CNc2ccn3ncc(-c4cccc(C(F)(F)F)c4)c3n2)CC1 [Compound 8-59] | 100 to 1000
